Data published in patent US20230124087A1, “KV3 ENHANCERS FOR THE TREATMENT OF COGNITIVE DISORDERS” (Hoffmann-La Roche Inc., priority 2020, published 2023).
pEC50: −log10 of the molar value. Read-outs that look alike come from different tables or passages of the source.

Biological target: T1, Kv3.1 (Homo sapiens, UniProt P48547)
T1 construct: expressed in transfected cells
T1 sequence (P48547 1-511): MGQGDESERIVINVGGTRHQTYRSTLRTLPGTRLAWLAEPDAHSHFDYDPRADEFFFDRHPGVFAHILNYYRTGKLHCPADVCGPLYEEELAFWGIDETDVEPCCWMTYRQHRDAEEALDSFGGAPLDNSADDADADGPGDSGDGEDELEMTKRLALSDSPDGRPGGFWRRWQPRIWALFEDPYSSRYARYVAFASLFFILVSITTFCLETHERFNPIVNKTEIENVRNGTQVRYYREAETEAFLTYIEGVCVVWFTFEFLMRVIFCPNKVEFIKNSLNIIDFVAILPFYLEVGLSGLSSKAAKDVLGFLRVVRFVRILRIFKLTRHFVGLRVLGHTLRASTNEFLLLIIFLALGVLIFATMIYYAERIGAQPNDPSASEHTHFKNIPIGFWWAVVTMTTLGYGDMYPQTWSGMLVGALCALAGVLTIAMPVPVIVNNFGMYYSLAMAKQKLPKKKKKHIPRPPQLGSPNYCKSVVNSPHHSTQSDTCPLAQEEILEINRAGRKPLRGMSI
Experiment: Kv3.1 automated patch clamp (Qube) cellular electrophysiology assay
Assay type: cell-based
Description: In vitro, high-throughput cellular electrophysiology was employed to detect voltage-dependence of compounds in single concentration screening and IC50 determination for library and medicinal chemistry profiling compounds in 384 well plates.
HEK-293 cell lines stably expressing coding DNA for Kv3.1, 3.2, 3.3, and 3.4 were validated on an automated patch clamp (APC) platform, Qube from Sophion/Denmark. Cell cultures were maintained in DMEM cell growth media containing FBS and appropriate antibiotics at 37° C., 5% CO2 for a maximum of 20 passages. Intra- and extracellular (w. glucose) HEPES buffers containing various monovalent and divalent cations were adjusted to pH 7.2 and 7.4 respectively. Cells were harvested at 75% confluency and resuspended in extracellular buffer and added to wells. Negative pressure was applied to establish whole cell recording by APC.
Currents through activated channels were measured directly by APC by employing depolarization voltage steps. Baseline currents were established for the voltage-dependence protocols using a −80 mV holding potential and multiple test pulses at +10 mV or by 10 mV steps from −80 mV to +40 mV, respectively. Test compounds were added after baseline recordings followed by a 10 min incubation, and voltage-dependency protocol recordings. Data was corrected for baseline and leak currents (well based) and normalized for % potentiation (plate based). Two previously reported Kv3 positive modulators of varying potencies were used for run to run and plate to plate quality controls. A non-selective and potent positive modulator was used as a positive control. Percent potentiation was analyzed at −20 mV of the voltage-dependency protocol and voltage shift in channel activation was analyzed using the voltage step protocol from −80 mV to +40 mV. Selectivity was assessed against Kv3.2, Kv3.3, and Kv3.4 overexpressing cell lines using similar methods.

SMILES | pEC50 | pEC50 (HEK-293 cell line stably expressing Kv3.1, automated patch clamp, 10 min incubation, read-out: EC50 Kv3.1)
O=c1[nH]c2cccnc2n1-c1ccc(Oc2cccc3c2C2(CC2)CO3)nc1 [Example 1, 3-(6-spiro[2H-benzofuran-3,1′-cyclopropane]-4-yloxy-3-pyridyl)-1H-imidazo[4,5-b]pyridin-2-one] | 6.52 | –
O=c1[nH]c2cncnc2n1-c1ccc(Oc2cccc3c2C2(CC2)CO3)nc1 [Example 2, 9-(6-spiro[2H-benzofuran-3,1′-cyclopropane]-4-yloxy-3-pyridyl)-7H-purin-8-one] | 6.10 | –
Cc1ccc(Oc2ccc(-n3c(=O)[nH]c4cccnc43)cn2)cc1Cl [Example 3, 3-[6-(3-chloro-4-methyl-phenoxy)-3-pyridyl]-1H-imidazo[4,5-b]pyridin-2-one] | 5.80 | –
CC(C)(C)c1cc(C#N)ccc1Oc1ccc(-n2c(=O)[nH]c3cccnc32)cn1 [Example 4, 3-tert-butyl-4-[[5-(2-oxo-1H-imidazo[4,5-b]pyridin-3-yl)-2-pyridyl]oxy]benzonitrile] | 5.70 | –
CC(C)c1cc(Oc2ccc(-n3c(=O)[nH]c4cccnc43)cn2)ccc1C#N [Example 5, 2-isopropyl-4-[[5-(2-oxo-1H-imidazo[4,5-b]pyridin-3-yl)-2-pyridyl]oxy]benzonitrile] | 5.57 | –
O=c1[nH]c2cnccc2n1-c1ccc(Oc2cccc3c2C2(CC2)CO3)nc1 [Example 6, 1-(6-spiro[2H-benzofuran-3,1′-cyclopropane]-4-yloxy-3-pyridyl)-3H-imidazo[4,5-c]pyridin-2-one] | 5.70 | –
COc1cc(Oc2ccc(-n3c(=O)[nH]c4cc(F)cnc43)cn2)ccc1C [Example 7, 6-fluoro-3-[6-(3-methoxy-4-methyl-phenoxy)-3-pyridyl]-1H-imidazo[4,5-b]pyridin-2-one] | 5.66 | –
O=c1[nH]c2cccnc2n1-c1ccc(Oc2cccc3c2C2(CC2)CO3)c(F)c1 [Example 8, 3-(3-fluoro-4-spiro[2H-benzofuran-3,1′-cyclopropane]-4-yloxy-phenyl)-1H-imidazo[4,5-b]pyridin-2-one] | 5.64 | –
COc1cc(Oc2ccc(-n3c(=O)[nH]c4cc(C)cnc43)cn2)ccc1C [Example 9, 3-[6-(3-methoxy-4-methyl-phenoxy)-3-pyridyl]-6-methyl-1H-imidazo[4,5-b]pyridin-2-one] | 5.60 | –
O=c1[nH]c2ccccc2n1-c1ccc(Oc2cccc3c2C2(CC2)CO3)nc1 [Example 10, 3-(6-spiro[2H-benzofuran-3,1′-cyclopropane]-4-yloxy-3-pyridyl)-1H-benzimidazol-2-one] | 5.60 | –
Cc1cc(-n2c(=O)[nH]c3ccccc32)cnc1Oc1cccc2c1C1(CC1)CO2 [Example 11, 3-(5-methyl-6-spiro[2H-benzofuran-3,1′-cyclopropane]-4-yloxy-3-pyridyl)-1H-benzimidazol-2-one] | 5.55 | –
O=c1[nH]c2ccncc2n1-c1ccc(Oc2cccc3c2C2(CC2)CO3)nc1 [Example 12, 3-(6-spiro[2H-benzofuran-3,1′-cyclopropane]-4-yloxy-3-pyridyl)-1H-imidazo[4,5-c]pyridin-2-one] | 5.41 | –
O=c1[nH]c2ncccc2n1-c1ccc(Oc2cccc3c2C2(CC2)CO3)nc1 [Example 13, 1-(6-spiro[2H-benzofuran-3,1′-cyclopropane]-4-yloxy-3-pyridyl)-3H-imidazo[4,5-b]pyridin-2-one] | 5.47 | –
CC(C)c1cc(Oc2ccc(-n3c(=O)[nH]c4cc(F)cnc43)cn2)ccc1C#N [Example 14, 4-[[5-(6-fluoro-2-oxo-1H-imidazo[4,5-b]pyridin-3-yl)-2-pyridyl]oxy]-2-isopropyl-benzonitrile] | 5.57 | –
CC(C)c1cc(Oc2ccc(-n3c(=O)[nH]c4cncnc43)cn2)ccc1C#N [Example 15, 2-isopropyl-4-[[5-(8-oxo-7H-purin-9-yl)-2-pyridyl]oxy]benzonitrile] | 5.46 | –
CC(C)c1cc(Oc2ccc(-n3c(=O)[nH]c4cnccc43)cn2)ccc1C#N [Example 16, 2-isopropyl-4-[[5-(2-oxo-3H-imidazo[4,5-c]pyridin-1-yl)-2-pyridyl]oxy]benzonitrile] | 5.23 | –
CC(C)c1cc(Oc2ccc(-n3c(=O)[nH]c4cccnc43)cc2F)ccc1C#N [Example 17, 4-[2-fluoro-4-(2-oxo-1H-imidazo[4,5-b]pyridin-3-yl)phenoxy]-2-isopropyl-benzonitrile] | 5.33 | –

SMILES | pEC50 | pEC50 (HEK-293 cell line stably expressing Kv3.1, automated patch clamp, 10 min incubation, read-out: EC50 Kv3.1)
CC(C)c1cc(Oc2ccc(-n3c(=O)[nH]c4cncnc43)cc2F)ccc1C#N [Example 18, 4-[2-fluoro-4-(8-oxo-7H-purin-9-yl)phenoxy]-2-isopropyl-benzonitrile] | 4.73 | –
CC(C)c1cc(Oc2ccc(-n3c(=O)[nH]c4ccccc43)cn2)ccc1C#N [Example 19, 2-isopropyl-4-[[5-(2-oxo-3H-benzimidazol-1-yl)-2-pyridyl]oxy]benzonitrile] | 4.81 | –
CC(C)(C)c1cc(C#N)ccc1Oc1ccc(-n2c(=O)[nH]c3ccccc32)cn1 [Example 20, 3-tert-butyl-4-[[5-(2-oxo-3H-benzimidazol-1-yl)-2-pyridyl]oxy]benzonitrile] | 4.91 | –
CCc1cc(Oc2ccc(-n3c(=O)[nH]c4ccccc43)cn2)ccc1C#N [Example 21, 2-ethyl-4-[[5-(2-oxo-3H-benzimidazol-1-yl)-2-pyridyl]oxy]benzonitrile] | 4.73 | –
CC(C)Oc1cc(Oc2ccc(-n3c(=O)[nH]c4ccccc43)cn2)ccc1C#N [Example 22, 2-isopropoxy-4-[[5-(2-oxo-3H-benzimidazol-1-yl)-2-pyridyl]oxy]benzonitrile] | 4.68 | –
O=c1[nH]c2ccccc2n1-c1ccc(Oc2cccc3c2C2(CC2)CO3)c(F)c1 [Example 23, 3-(3-fluoro-4-spiro[2H-benzofuran-3,1′-cyclopropane]-4-yloxy-phenyl)-1H-benzimidazol-2-one] | 5.46 | –
CC(C)(C)c1cc(C#N)ccc1Oc1ccc(-n2c(=O)[nH]c3cncnc32)cn1 [Example 24, 3-tert-butyl-4-[[5-(8-oxo-7H-purin-9-yl)-2-pyridyl]oxy]benzonitrile] | 5.40 | –
Cc1ccc(Oc2ccc(-n3c(=O)[nH]c4cncnc43)cn2)cc1OC(F)(F)F [Example 25, 9-[6-[4-methyl-3-(trifluoromethoxy)phenoxy]-3-pyridyl]-7H-purin-8-one] | – | 5.23
CC(C)(C)c1cc(C#N)ccc1Oc1ccc(-n2c(=O)[nH]c3cnccc32)cn1 [Example 26, 3-tert-butyl-4-[[5-(2-oxo-3H-imidazo[4,5-c]pyridin-1-yl)-2-pyridyl]oxy]benzonitrile] | 5.33 | –
CC(C)(C)c1cc(C#N)ccc1Oc1ccc(-n2c(=O)[nH]c3cc(F)cnc32)cn1 [Example 27, 3-tert-butyl-4-[[5-(6-fluoro-2-oxo-1H-imidazo[4,5-b]pyridin-3-yl)-2-pyridyl]oxy]benzonitrile] | 5.26 | –
COc1cc(Oc2ccc(-n3c(=O)[nH]c4cc(Cl)cnc43)cn2)ccc1C [Example 28, 6-chloro-3-[6-(3-methoxy-4-methyl-phenoxy)-3-pyridyl]-1H-imidazo[4,5-b]pyridin-2-one] | 5.00 | –
COc1cc(Oc2ccc(-n3c(=O)[nH]c4cc(C(F)(F)F)cnc43)cn2)ccc1C [Example 29, 3-[6-(3-methoxy-4-methyl-phenoxy)-3-pyridyl]-6-(trifluoromethyl)-1H-imidazo[4,5-b]pyridin-2-one] | 5.24 | –
COc1cc(Oc2ccc(-n3c(=O)[nH]c4ncccc43)cn2)ccc1C [Example 30, 1-[6-(3-methoxy-4-methyl-phenoxy)-3-pyridyl]-3H-imidazo[4,5-b]pyridin-2-one] | 4.72 | –
COc1cc(Oc2ccc(-n3c(=O)[nH]c4ccncc43)cn2)ccc1C [Example 31, 3-[6-(3-methoxy-4-methyl-phenoxy)-3-pyridyl]-1H-imidazo[4,5-c]pyridin-2-one] | 4.68 | –
COc1cc(Oc2ccc(-n3c(=O)[nH]c4cnccc43)cn2)ccc1C [Example 32, 1-[6-(3-methoxy-4-methyl-phenoxy)-3-pyridyl]-3H-imidazo[4,5-c]pyridin-2-one] | 5.36 | –
COc1cc(Oc2ccc(-n3c(=O)[nH]c4cccnc43)cn2)ccc1C [Example 33, 3-[6-(3-methoxy-4-methyl-phenoxy)-3-pyridyl]-1H-imidazo[4,5-b]pyridin-2-one] | 5.47 | –
COc1cc(Oc2ccc(-n3c(=O)[nH]c4ccccc43)cn2)ccc1C [Example 34, 3-[6-(3-methoxy-4-methyl-phenoxy)-3-pyridyl]-1H-benzimidazol-2-one] | 5.28 | –
